Data reported in patent US20100048728A1, “POLYCYCLIC DIANTHRAQUINONES AS INHIBITORS OF INFLAMMATORY CYTOKINES” (HY BIOPHARMA INC., priority 2006, published 2010).

Columns and labels:
[1] = system: Herpes simplex type 1 virus induced skin inflammation; experiment: Inflammatory skin reactions induced by Herpes simplex type 1 virus in guinea pig dorsa; settings: topical 1.2 or 1.7 μg Hypericin/gr Vaseline, 3× per day for 3 days, evaluated after 96 hrs
Mouse L cells [2] = experiment: Protection from TNFα-induced cell death, Hemacolor assay; format: cell-based
Experimental: Mouse L cells (ATCC) were cultured in complete MEM medium in 37° C. incubator with 5% CO2 and 95% humidity. The culture cells were divided to 6 separate groups: i. untreated control ii. TNFα25 u/ml iii. TNFα25 u/ml and Hypericin 0.5 μg/ml iv. TNFα25 u/ml and Hypericin 1 μg/ml v. TNFα25 u/ml and Hypericin 5 μg/ml vi. TNFα 25 u/ml and Hypericin 7.5 μg/ml.
Hypericin was applied to the cells 48 hr prior to TNFα administration. The experiment was terminated 24 hrs after TNF administration and cell viability evaluated using the Hemacolor assay.

[3] = system: acute IBD generated in BALB/C mice by DSS; experiment: DSS-induced acute inflammatory bowel disease (IBD) in mice, colon length; format: in vivo
Experimental: 36 male BABL/c mice anesthetized with Ketamine & Xylazine, are divided into six groups: • Control • Dextran sulfate sodium salt (DSS) alone −8000 MW • DSS with Hypericin 25 μg/animal • DSS with Hypericin 75 μg/animal • Hypericin 25 μg/animal • Hypericin 75 μg/animal
Acute IBD was generated in BALB/C mice (6 mice per group) by DSS administered via the drinking water (3.5% w/v) for 7 days. Hypericin was administered to these animals intraperitoneally at doses of 25 and 75 μg/mouse beginning 48 hrs prior to initiation of DSS administration and at 48 hr intervals thereafter. After 16 days the mice were sacrificed with high dose of sodium pentobarbital, the gastro-intestinal tract removed, its overall length measured and evaluated compared to control untreated healthy mice.

Mouse L cells [4] = experiment: Protection from TNFα-induced cell death, MTT assay; format: cell-based
Experimental: Mouse L cells (ATCC) were cultured in complete MEM medium in 37° C. incubator with 5% CO2 and 95% humidity. The culture cells were divided to […]: i. untreated control ii. Hypericin 0.5 μg/ml iii. Hypericin 1 μg/ml iv. TNFα10 u/ml v. TNFα25 u/ml vi. TNFα10 u/ml and Hypericin 0.5 μg/ml vii. TNFα10 u/ml and Hypericin 1 μg/ml viii. TNFα 25 u/ml and Hypericin 0.5 μg/ml ix. TNFα25 u/ml and Hypericin 1 μg/ml.
Hypericin was applied to the cells 48 hr prior to TNFα administration. The experiment was terminated 24 hrs after TNF administration and cell viability evaluated by MTT assay.

SMILES: Cc1cc(O)c2c(=O)c3c(O)cc(O)c4c5c(O)cc(O)c6c(=O)c7c(O)cc(C)c8c1c2c(c34)c(c78)c65 [Hypericin, hypericin]
- inflammatory erythema following infection with herpes virus [1]: significantly inhibited
- prevention of TNFα induced cell death (Hemacolor) (Mouse L cells [2]; Hypericin 0.5 μg/ml 48 hr before TNFα 25 u/ml, P≦0.0045): prevented cell death significantly
- prevention of TNFα induced cell death (Hemacolor) (Mouse L cells [2]; Hypericin 1 μg/ml 48 hr before TNFα 25 u/ml, P≦0.00049): prevented cell death significantly
- prevention of TNFα induced cell death (Hemacolor) (Mouse L cells [2]; Hypericin 5 μg/ml 48 hr before TNFα 25 u/ml, P≦0.00105): prevented cell death significantly
- prevention of TNFα induced cell death (Hemacolor) (Mouse L cells [2]; Hypericin 7.5 μg/ml 48 hr before TNFα 25 u/ml, P≦0.00159): prevented cell death significantly
- prevention of TNFα induced cell death (Hemacolor) (Mouse L cells [2]; Hypericin 15 μg/ml before TNFα 25 u/ml): did not prevent cell death
- colon length ([3]; Hypericin 25 μg/mouse without DSS): did not alter the colon length
- colon length ([3]; Hypericin 75 μg/mouse intraperitoneally with 3.5% DSS, after 16 days, DSS alone 8.016 cm, control 12.6 cm, P≦0.039 vs DSS alone): 9.067 cm
- colon length ([3]; Hypericin 75 μg/mouse without DSS): did not alter the colon length
- prevention of TNFα induced cell death (MTT) (Mouse L cells [4]; Hypericin 0.5 μg/ml 48 hr before TNFα 10 u/ml, P≦0.025758): prevented cell death significantly
- prevention of TNFα induced cell death (MTT) (Mouse L cells [4]; Hypericin 0.5 μg/ml 48 hr before TNFα 25 u/ml, P≦0.023446): prevented cell death significantly
- prevention of TNFα induced cell death (MTT) (Mouse L cells [4]; Hypericin 1 μg/ml 48 hr before TNFα 10 u/ml, P≦0.014777): prevented cell death significantly
- prevention of TNFα induced cell death (MTT) (Mouse L cells [4]; Hypericin 1 μg/ml 48 hr before TNFα 25 u/ml, P≦0.047198): prevented cell death significantly
- cell viability (MTT) (Mouse L cells [4]; Hypericin alone, compared to the control group): did not alter cell viability
